For assay [1], the target named is T1, human CB1 receptor (Homo sapiens, UniProt P21554).
T1 construct: expressed in transfected cells; host or cells: SK-N-MC cells, stably transfected with pcDNA3 CB-1 (human); semi-purified membrane pellet
Put plainly: Binding assay, cannabinoid CB1 receptor, [3H]-CP-55,940 displacement. As for the experimental part: (§1) The human CB1 and CB2 receptors were stably expressed in SK-N-MC cells transfected with pcDNA3 CB-1 (human) or pcDNA3 CB-2 (human). The cells were grown in T-180 cell culture flasks under standard cell culture conditions at 37° C. in a 5% CO2 atmosphere. The cells were harvested by trysinization and homogenized in a homogenization buffer (10 mM Tris, 0.2 mM MgCl2, 5 mM KCl, with protease inhibitors aprotinin, leupeptin, pepstatin A and bacitracin) and centrifuged (2000 g). The supernatant was then centrifuged in 2M sucrose (31,300 g) to produce a semi-purified membrane pellet. The pellet was resuspended in homogenization and stored at −80° C.
(§2) On the day of the assay, the pellet was thawed on ice and diluted in assay buffer (50 mM Tris-HCl, 5 mM MgCl2, 2.5 mM EDTA, 0.5 mg/mL fatty acid free bovine serum albumin, pH 7.5). The diluted membrane pellet was added with buffer, either a test compound or vehicle standard and the radioligand [H]^3+-CP-55,940 (0.2 nM) to the wells of a 96-well polypropylene plate. Non-specific binding was measured in wells containing WIN 55,212 (10 uM). The plate was covered and incubated for 90 minutes at 30° C. The contents were then aspirated onto a Packard Unifilter GF/C filter bottom plate prewet with 0.5% polyethyleneimine. The wells of the polypropylene plate were rinsed and aspirated seven times with a 0.9% saline-0.5% Tween 20 solution. The Unifilter plate was dried, scintillation cocktail was added to each well and the counts representing binding were quantitated in a TopCount scintillation counter.
(§3) For compounds tested, an IC50 binding value was obtained from percent inhibition studies in which various test concentrations were used. The binding value was calculated by linear regression.
(§4) For compounds without an IC50 binding value, the percent inhibition (%) was obtained at a test concentration of ^a1.0 μM or ^b0.2 μM.

Assay [2] addresses T2, human CB2 receptor (Homo sapiens, UniProt P34972).
T2 construct: expressed in transfected cells; host or cells: SK-N-MC cells, stably transfected with pcDNA3 CB-2 (human); semi-purified membrane pellet
Kind of assay: Binding assay, cannabinoid CB2 receptor, [3H]-CP-55,940 displacement. The settings on record: for inhibition at 1 µM / inhibition at 0.2 µM: read-out: Cannabinoid CB2 Receptor Binding, percent inhibition; for IC50: membranes of SK-N-MC cells expressing human CB2, calculated by linear regression from percent inhibition at various concentrations. As to the method: as §1, §2, §3, §4

[3] abbreviates: membranes of SK-N-MC cells expressing human CB1, calculated by linear regression from percent inhibition at various concentrations, read-out: Cannabinoid CB1 Receptor Binding, IC50 binding value.
[4] abbreviates: read-out: Cannabinoid CB1 Receptor Binding, percent inhibition.

Like-named read-outs stand apart in the source and are kept apart here.

Consider 23 compounds from US7943653B2 (priority 2008, dated 2011).

Usually IC50 stands for the midpoint of a concentration-inhibition curve. A word on the inhibition: it is the change of the read-out against control, counted positive when it falls.

T2 sequence (P34972 whole entry): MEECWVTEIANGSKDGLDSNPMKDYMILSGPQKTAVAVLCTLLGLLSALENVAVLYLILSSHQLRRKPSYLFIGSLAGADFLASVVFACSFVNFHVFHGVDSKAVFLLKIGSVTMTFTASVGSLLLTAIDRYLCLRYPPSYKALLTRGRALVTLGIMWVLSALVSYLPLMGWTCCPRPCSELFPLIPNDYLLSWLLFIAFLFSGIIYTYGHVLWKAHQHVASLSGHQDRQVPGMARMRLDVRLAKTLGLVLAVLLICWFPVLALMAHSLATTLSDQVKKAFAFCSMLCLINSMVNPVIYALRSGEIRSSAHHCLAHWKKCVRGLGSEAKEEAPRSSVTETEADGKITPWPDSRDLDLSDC
T1 sequence (P21554 whole entry): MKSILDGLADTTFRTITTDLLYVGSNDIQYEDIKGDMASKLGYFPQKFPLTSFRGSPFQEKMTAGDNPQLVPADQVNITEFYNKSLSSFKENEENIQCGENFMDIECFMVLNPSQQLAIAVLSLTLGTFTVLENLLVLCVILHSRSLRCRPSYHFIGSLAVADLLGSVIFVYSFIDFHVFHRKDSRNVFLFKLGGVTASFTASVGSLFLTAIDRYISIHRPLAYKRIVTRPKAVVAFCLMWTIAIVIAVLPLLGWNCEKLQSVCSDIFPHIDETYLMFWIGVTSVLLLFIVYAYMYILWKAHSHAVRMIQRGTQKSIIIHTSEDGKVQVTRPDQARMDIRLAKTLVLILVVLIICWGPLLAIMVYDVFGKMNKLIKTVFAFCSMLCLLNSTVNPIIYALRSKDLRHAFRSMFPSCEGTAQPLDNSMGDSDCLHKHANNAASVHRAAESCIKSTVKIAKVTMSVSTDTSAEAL

The compound `CC(=Cc1ccc(Cl)cc1)c1c(C)c(C(=O)N[C@@H](C)C2CCCCC2)nn1-c1ccc(Cl)cc1Cl` [Cpd 1, 5-[2-(4-chloro-phenyl)-1-methyl-vinyl]-1-(2,4-dichloro-phenyl)-4-methyl-1H-pyrazole-3-carboxylic acid [(1S)-1-cyclohexyl-ethyl]-amide] returned an IC50 in assay [1] of 20 nM. Moreover, the inhibition at 1 µM in assay [2] was 42%. In the same order, the values of `CC(=Cc1ccc(Cl)cc1)c1c(C)c(C(=O)N[C@@H](C)c2ccccc2)nn1-c1ccc(Cl)cc1Cl` [Cpd 2, 5-[2-(4-chloro-phenyl)-1-methyl-vinyl]-1-(2,4-dichloro-phenyl)-4-methyl-1H-pyrazole-3-carboxylic acid [(1S)-1-phenyl-ethyl]-amide] are 20 nM and 32%.

In assay [1], `CC(=Cc1ccc(Cl)cc1)c1c(C)c(C(=O)N[C@@H]2C(C)(C)[C@@H]3CC[C@]2(C)C3)nn1-c1ccc(Cl)cc1Cl` [Cpd 3, 5-[2-(4-chloro-phenyl)-1-methyl-vinyl]-1-(2,4-dichloro-phenyl)-4-methyl-1H-pyrazole-3-carboxylic acid [(1R,2S,4R)-1,3,3-trimethyl-bicyclo[2.2.1]hept-2-yl]-amide] showed an IC50 of 50 nM. Further, in assay [2], the inhibition at 1 µM is 31%. For `CC(=Cc1ccc(Cl)cc1)c1c(C)c(C(=O)NN2CCCCC2)nn1-c1ccc(Cl)cc1Cl` [Cpd 4, 5-[2-(4-chloro-phenyl)-1-methyl-vinyl]-1-(2,4-dichloro-phenyl)-4-methyl-1H-pyrazole-3-carboxylic acid piperidin-1-ylamide], the IC50 in assay [1] was 90 nM; in assay [2], 1700 nM. In the case of `CC(=Cc1ccc(Cl)cc1)c1c(C)c(C(=O)NN2CCOCC2)nn1-c1ccc(Cl)cc1Cl` [Cpd 5, 5-[2-(4-chloro-phenyl)-1-methyl-vinyl]-1-(2,4-dichloro-phenyl)-4-methyl-1H-pyrazole-3-carboxylic acid morpholin-4-ylamide], the IC50 was 360 nM in assay [1] (setting [3]) and 2000 nM in assay [2]. With `CC(=Cc1ccc(Cl)cc1)c1c(C)c(C(=O)NC2CCCCC2)nn1-c1ccc(Cl)cc1Cl` [Cpd 6, 5-[2-(4-chloro-phenyl)-1-methyl-vinyl]-1-(2,4-dichloro-phenyl)-4-methyl-1H-pyrazole-3-carboxylic acid cyclohexylamide], the half-inhibitory concentration (IC50) in assay [1] (setting [3]) was 130 nM. Moreover, in assay [2], the inhibition at 1 µM was found to be 40%. In the same order, the values of `CC(=Cc1ccc(Cl)cc1)c1c(C)c(C(=O)NC2CCCCC2C)nn1-c1ccc(Cl)cc1Cl` (stereo not shown) [Cpd 7, 5-[2-(4-chloro-phenyl)-1-methyl-vinyl]-1-(2,4-dichloro-phenyl)-4-methyl-1H-pyrazole-3-carboxylic acid (2-methyl-cyclohexyl)-amide] are 110 nM and 55%.

Consider `CC(=Cc1ccc(Cl)cc1)c1c(C)c(C(=O)N[C@H](C)C2CCCCC2)nn1-c1ccc(Cl)cc1Cl` [Cpd 8, 5-[2-(4-chloro-phenyl)-1-methyl-vinyl]-1-(2,4-dichloro-phenyl)-4-methyl-1H-pyrazole-3-carboxylic acid [(1R)-1-cyclohexyl-ethyl]-amide], for which the IC50 in assay [1] is 310 nM. Also, the inhibition at 1 µM in assay [2] turned out to be 39%. For `CC(=Cc1ccc(Cl)cc1)c1c(C)c(C(=O)NCC2CCCCC2)nn1-c1ccc(Cl)cc1Cl` [Cpd 9, 5-[2-(4-chloro-phenyl)-1-methyl-vinyl]-1-(2,4-dichloro-phenyl)-4-methyl-1H-pyrazole-3-carboxylic acid cyclohexylmethyl-amide], the 50% inhibitory concentration (IC50) in assay [1] (setting [3]) was 370 nM. For the same compound, the inhibition at 1 µM in assay [2] amounted to 49%. In the same order, the values of `CC(=Cc1ccc(Cl)cc1)c1c(C)c(C(=O)Nc2ccccc2)nn1-c1ccc(Cl)cc1Cl` [Cpd 10, 5-[2-(4-chloro-phenyl)-1-methyl-vinyl]-1-(2,4-dichloro-phenyl)-4-methyl-1H-pyrazole-3-carboxylic acid phenylamide] are 600 nM and 46%. As for `CC(=Cc1ccc(Cl)cc1)c1c(C)c(C(=O)N[C@H](C)c2ccccc2)nn1-c1ccc(Cl)cc1Cl` [Cpd 11, 5-[2-(4-chloro-phenyl)-1-methyl-vinyl]-1-(2,4-dichloro-phenyl)-4-methyl-1H-pyrazole-3-carboxylic acid [(1R)-1-phenyl-ethyl]-amide], in assay [1], the IC50 turned out to be 340 nM. For the same compound, the inhibition at 1 µM in assay [2] stood at 51%. Regarding `CC(=Cc1cccc(Cl)c1)c1c(C)c(C(=O)NN2CCCCC2)nn1-c1ccc(Cl)cc1Cl` [Cpd 12, 5-[2-(3-chloro-phenyl)-1-methyl-vinyl]-1-(2,4-dichloro-phenyl)-4-methyl-1H-pyrazole-3-carboxylic acid piperidin-1-ylamide], the IC50 in assay [1] (setting [3]) is 250 nM.

As for `CC(=Cc1cccc(Cl)c1)c1c(C)c(C(=O)NN2CCOCC2)nn1-c1ccc(Cl)cc1Cl` [Cpd 13, 5-[2-(3-chloro-phenyl)-1-methyl-vinyl]-1-(2,4-dichloro-phenyl)-4-methyl-1H-pyrazole-3-carboxylic acid morpholin-4-ylamide], in assay [1] (setting [4]), the inhibition at 1 µM worked out at 53%. For `CC(=Cc1cccc(Cl)c1)c1c(C)c(C(=O)N[C@@H](C)C2CCCCC2)nn1-c1ccc(Cl)cc1Cl` [Cpd 16, 5-[2-(3-chloro-phenyl)-1-methyl-vinyl]-1-(2,4-dichloro-phenyl)-4-methyl-1H-pyrazole-3-carboxylic acid [(1S)-1-cyclohexyl-ethyl]-amide], the IC50 in assay [1] is 330 nM. On to `CC(=Cc1cccc(Cl)c1)c1c(C)c(C(=O)N[C@@H](C)c2ccccc2)nn1-c1ccc(Cl)cc1Cl` [Cpd 17, 5-[2-(3-chloro-phenyl)-1-methyl-vinyl]-1-(2,4-dichloro-phenyl)-4-methyl-1H-pyrazole-3-carboxylic acid [(1S)-1-phenyl-ethyl]-amide], for which the IC50 in assay [1] (setting [3]) was 250 nM. Compound `CC(=Cc1cccc(Cl)c1)c1c(C)c(C(=O)N[C@H](C)C2CCCCC2)nn1-c1ccc(Cl)cc1Cl` [Cpd 18, 5-[2-(3-chloro-phenyl)-1-methyl-vinyl]-1-(2,4-dichloro-phenyl)-4-methyl-1H-pyrazole-3-carboxylic acid [(1R)-1-cyclohexyl-ethyl]-amide] registered an IC50 in assay [1] of 90 nM. For the compound `CC(=Cc1cccc(Cl)c1)c1c(C)c(C(=O)N[C@H](C)c2ccccc2)nn1-c1ccc(Cl)cc1Cl` [Cpd 19, 5-[2-(3-chloro-phenyl)-1-methyl-vinyl]-1-(2,4-dichloro-phenyl)-4-methyl-1H-pyrazole-3-carboxylic acid [(1R)-1-phenyl-ethyl]-amide], the half-inhibitory concentration (IC50) in assay [1] (setting [3]) was 370 nM. The same measure, in the same setting: next, `CC(=Cc1ccc(Cl)cc1)c1c(C)c(C(=O)N[C@@H](C)C2CCCCC2)nn1-c1ccc(F)cc1F` [Cpd 21, 5-[2-(4-chloro-phenyl)-1-methyl-vinyl]-1-(2,4-difluoro-phenyl)-4-methyl-1H-pyrazole-3-carboxylic acid [(1S)-1-cyclohexyl-ethyl]-amide]: 130 nM; `CC(=Cc1ccc(Cl)cc1)c1c(C)c(C(=O)N[C@H](C)c2ccccc2)nn1-c1ccc(F)cc1F` [Cpd 23, 5-[2-(4-chloro-phenyl)-1-methyl-vinyl]-1-(2,4-difluoro-phenyl)-4-methyl-1H-pyrazole-3-carboxylic acid [(1R)-1-phenyl-ethyl]-amide]: 300 nM. Take `CC(=Cc1ccc(Cl)cc1)c1c(C)c(C(=O)N[C@H](C)C2CCCCC2)nn1-c1ccc(F)cc1F` [Cpd 24, 5-[2-(4-chloro-phenyl)-1-methyl-vinyl]-1-(2,4-difluoro-phenyl)-4-methyl-1H-pyrazole-3-carboxylic acid [(1R)-1-cyclohexyl-ethyl]-amide]: in assay [1] (setting [3]), the half-maximal inhibitory concentration (IC50) is 280 nM. Regarding `CNC(=O)c1nn(-c2ccc(Cl)cc2Cl)c(C(C)=Cc2ccc(Cl)cc2)c1C` [Cpd 27, 5-[2-(4-chloro-phenyl)-1-methyl-vinyl]-1-(2,4-dichloro-phenyl)-4-methyl-1H-pyrazole-3-carboxylic acid methylamide], the values for the inhibition at 0.2 µM in assay [1] (setting [4]) and in assay [2] were 11% and 18%, respectively. In assay [1], `CC[C@@H](C)NC(=O)c1nn(-c2ccc(Cl)cc2Cl)c(C(C)=Cc2ccc(Cl)cc2)c1C` [Cpd 28, 5-[2-(4-chloro-phenyl)-1-methyl-vinyl]-1-(2,4-dichloro-phenyl)-4-methyl-1H-pyrazole-3-carboxylic acid [(R)-sec-butyl]-amide] returned an IC50 of 70 nM. The inhibition at 0.2 µM in assay [2] came to 21%. As for `CC[C@H](C)NC(=O)c1nn(-c2ccc(Cl)cc2Cl)c(C(C)=Cc2ccc(Cl)cc2)c1C` [Cpd 29, 5-[2-(4-chloro-phenyl)-1-methyl-vinyl]-1-(2,4-dichloro-phenyl)-4-methyl-1H-pyrazole-3-carboxylic acid [(S)-sec-butyl]-amide], the inhibition at 0.2 µM in assay [1] (setting [4]) was 52%; in assay [2], 9%.
